Source: patent US10251395B2, “Substituted furano-/thienocycloalkylamino-2-pyrimidine derivatives and use thereof for controlling undesired plant growth” (Bayer CropScience Aktiengesellschaft, priority 2015, dated 2019)

Tests used:
[1] = tested on: Abutilon theophrasti; assay: Pre-emergence herbicidal effect; type: in vivo; details: Dosage 320 g/ha, scored visually after 3 weeks
Summary of the method: (§1)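 Visual damage score in % after 3 weeks in the greenhouse, relative to untreated controls (0% like control, 100% plants dead). Compounds were sprayed pre-emergence onto covering soil over seeds sown in sandy loam, as WP or EC in water at 600 to 800 L/ha plus 0.2% wetting agent.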

[2] = tested on: Alopecurus myosuroides; assay: Pre-emergence herbicidal effect; type: in vivo; details: scored visually after 3 weeks
Summary of the method: as §1

[3] = tested on: Amaranthus retroflexus; assay: Pre-emergence herbicidal effect; type: in vivo; details: scored visually after 3 weeks
Summary of the method: as §1

[4] = tested on: Avena fatua; assay: Pre-emergence herbicidal effect; type: in vivo; details: Dosage 320 g/ha, scored visually after 3 weeks
Summary of the method: as §1

[5] = tested on: Cyperus esculentus; assay: Pre-emergence herbicidal effect; type: in vivo; details: scored visually after 3 weeks
Summary of the method: as §1

[6] = tested on: Echinochloa crus-galli; assay: Pre-emergence herbicidal effect; type: in vivo; details: scored visually after 3 weeks
Summary of the method: as §1

[7] = tested on: Lolium multiflorum; assay: Pre-emergence herbicidal effect; type: in vivo; details: scored visually after 3 weeks
Summary of the method: as §1

[8] = tested on: Matricaria inodora; assay: Pre-emergence herbicidal effect; type: in vivo; details: scored visually after 3 weeks
Summary of the method: as §1

[9] = tested on: Polygonum convolvulus; assay: Pre-emergence herbicidal effect; type: in vivo; details: scored visually after 3 weeks
Summary of the method: as §1

[10] = tested on: Setaria viridis; assay: Pre-emergence herbicidal effect; type: in vivo; details: scored visually after 3 weeks
Summary of the method: as §1

[11] = tested on: Stellaria media; assay: Pre-emergence herbicidal effect; type: in vivo; details: scored visually after 3 weeks
Summary of the method: as §1

[12] = tested on: Veronica persica; assay: Pre-emergence herbicidal effect; type: in vivo; details: scored visually after 3 weeks
Summary of the method: as §1

[13] = tested on: Viola tricolor; assay: Pre-emergence herbicidal effect; type: in vivo; details: scored visually after 3 weeks
Summary of the method: as §1

[14] = tested on: Abutilon theophrasti; assay: Post-emergence herbicidal effect; type: in vivo; details: assessed visually after about 3 weeks vs untreated controls
Summary of the method: (§2)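 Greenhouse weeds grown in sandy loam were sprayed at the one-leaf stage, 2–3 weeks after sowing, with WP or EC formulations in 600–800 L/ha water plus 0.2% wetting agent. Damage was scored visually after about 3 weeks as percent activity relative to untreated controls, where 100% means the plants died.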

[15] = tested on: Alopecurus myosuroides; assay: Post-emergence herbicidal effect; type: in vivo; details: 320 g/ha, assessed visually after about 3 weeks vs untreated controls
Summary of the method: as §2

[16] = tested on: Amaranthus retroflexus; assay: Post-emergence herbicidal effect; type: in vivo; details: assessed visually after about 3 weeks vs untreated controls
Summary of the method: as §2

[17] = tested on: Avena fatua; assay: Post-emergence herbicidal effect; type: in vivo; details: assessed visually after about 3 weeks vs untreated controls
Summary of the method: as §2

[18] = tested on: Echinochloa crus-galli; assay: Post-emergence herbicidal effect; type: in vivo; details: 320 g/ha, assessed visually after about 3 weeks vs untreated controls
Summary of the method: as §2

[19] = tested on: Ipomoea purpurea; assay: Post-emergence herbicidal effect; type: in vivo; details: 320 g/ha, assessed visually after about 3 weeks vs untreated controls
Summary of the method: as §2

[20] = tested on: Lolium multiflorum; assay: Post-emergence herbicidal effect; type: in vivo; details: assessed visually after about 3 weeks vs untreated controls
Summary of the method: as §2

[21] = tested on: Matricaria inodora; assay: Post-emergence herbicidal effect; type: in vivo; details: 320 g/ha, assessed visually after about 3 weeks vs untreated controls
Summary of the method: as §2

[22] = tested on: Polygonum convolvulus; assay: Post-emergence herbicidal effect; type: in vivo; details: 320 g/ha, assessed visually after about 3 weeks vs untreated controls
Summary of the method: as §2

[23] = tested on: Setaria viridis; assay: Post-emergence herbicidal effect; type: in vivo; details: assessed visually after about 3 weeks vs untreated controls
Summary of the method: as §2

[24] = tested on: Stellaria media; assay: Post-emergence herbicidal effect; type: in vivo; details: assessed visually after about 3 weeks vs untreated controls
Summary of the method: as §2

[25] = tested on: Veronica persica; assay: Post-emergence herbicidal effect; type: in vivo; details: assessed visually after about 3 weeks vs untreated controls
Summary of the method: as §2

[26] = tested on: Viola tricolor; assay: Post-emergence herbicidal effect; type: in vivo; details: assessed visually after about 3 weeks vs untreated controls
Summary of the method: as §2

[27] = logP (HCOOH); type: physicochemical; details: HCOOH (formic acid)
Description: Table 2 (physicochemical characterization of selected synthesis examples)

chromatographic logP [27]: 2.66
Compound: Cc1sc2c(c1C)C(Nc1ncc(C(F)(F)F)c(N)n1)CCC2 (stereo not shown) [compound 213, N2-(2,3-Dimethyl-4,5,6,7-tetrahydrobenzothiophen-4-yl)-5-(trifluoromethyl)pyrimidine-2,4-diamine]
ABUTH pre-emergence efficacy (herbicidal activity) [1]: 100%
ALOMY pre-emergence efficacy (herbicidal activity) ([2]; Dosage 80 g/ha): 100%
ALOMY pre-emergence efficacy (herbicidal activity) ([2]; Dosage 320 g/ha): 100%
AMARE pre-emergence efficacy (herbicidal activity) ([3]; Dosage 80 g/ha): 100%
AMARE pre-emergence efficacy (herbicidal activity) ([3]; Dosage 320 g/ha): 100%
AVEFA pre-emergence efficacy (herbicidal activity) [4]: 100%
CYPES pre-emergence efficacy (herbicidal activity) ([5]; Dosage 80 g/ha): 80%
CYPES pre-emergence efficacy (herbicidal activity) ([5]; Dosage 320 g/ha): 80%
ECHCG pre-emergence efficacy (herbicidal activity) ([6]; Dosage 80 g/ha): 90%
ECHCG pre-emergence efficacy (herbicidal activity) ([6]; Dosage 320 g/ha): 100%
LOLMU pre-emergence efficacy (herbicidal activity) ([7]; Dosage 80 g/ha): 80%
LOLMU pre-emergence efficacy (herbicidal activity) ([7]; Dosage 320 g/ha): 100%
MATIN pre-emergence efficacy (herbicidal activity) ([8]; Dosage 80 g/ha): 100%
MATIN pre-emergence efficacy (herbicidal activity) ([8]; Dosage 320 g/ha): 100%
POLCO pre-emergence efficacy (herbicidal activity) ([9]; Dosage 80 g/ha): 90%
POLCO pre-emergence efficacy (herbicidal activity) ([9]; Dosage 320 g/ha): 100%
SETVI pre-emergence efficacy (herbicidal activity) ([10]; Dosage 80 g/ha): 100%
SETVI pre-emergence efficacy (herbicidal activity) ([10]; Dosage 320 g/ha): 100%
STEME pre-emergence efficacy (herbicidal activity) ([11]; Dosage 80 g/ha): 100%
STEME pre-emergence efficacy (herbicidal activity) ([11]; Dosage 320 g/ha): 100%
VERPE pre-emergence efficacy (herbicidal activity) ([12]; Dosage 80 g/ha): 100%
VERPE pre-emergence efficacy (herbicidal activity) ([12]; Dosage 320 g/ha): 100%
VIOTR pre-emergence efficacy (herbicidal activity) ([13]; Dosage 80 g/ha): 100%
VIOTR pre-emergence efficacy (herbicidal activity) ([13]; Dosage 320 g/ha): 100%
post-emergence efficacy ABUTH ([14]; 80 g/ha): 80%
post-emergence efficacy ABUTH ([14]; 320 g/ha): 90%
post-emergence efficacy ALOMY [15]: 90%
post-emergence efficacy AMARE ([16]; 80 g/ha): 80%
post-emergence efficacy AMARE ([16]; 320 g/ha): 90%
post-emergence efficacy AVEFA ([17]; 80 g/ha): 80%
post-emergence efficacy AVEFA ([17]; 320 g/ha): 80%
post-emergence efficacy ECHCG [18]: 90%
post-emergence efficacy PHBPU [19]: 90%
post-emergence efficacy LOLMU ([20]; 80 g/ha): 80%
post-emergence efficacy LOLMU ([20]; 320 g/ha): 80%
post-emergence efficacy MATIN [21]: 90%
post-emergence efficacy POLCO [22]: 90%
post-emergence efficacy SETVI ([23]; 80 g/ha): 50%
post-emergence efficacy SETVI ([23]; 320 g/ha): 90%
post-emergence efficacy STEME ([24]; 80 g/ha): 80%
post-emergence efficacy STEME ([24]; 320 g/ha): 90%
post-emergence efficacy VERPE ([25]; 80 g/ha): 80%
post-emergence efficacy VERPE ([25]; 320 g/ha): 90%
post-emergence efficacy VIOTR ([26]; 80 g/ha): 90%
post-emergence efficacy VIOTR ([26]; 320 g/ha): 100%
